Results: patent publication US6080871A, “Sulfonamides and sulfamides as H3 receptor antagonists” (James Black Foundation Limited, priority 1996, dated 2000)

How the values were obtained:
Histamine H3 = target: T1, Histamine H3 (Cavia porcellus, UniProt Q9JI35); assay: Histamine H3 radioligand binding assay, [3H]-R-α-methylhistamine, guinea pig ileum longitudinal muscle myenteric plexus membranes; settings: 3 nM [3H]-R-α-methylhistamine, 165 min, 21±3° C., Cheng Prusoff, variance ±0.12 log units; for Ki: read-out: pK1 (binding assay) (converted)
T1 construct: ileum longitudinal muscle myenteric plexus membranes; from tissue; host or cells: ileum longitudinal muscle myenteric plexus membranes of male Dunkin Hartley guinea pigs
Method: Histamine H3 Radioligand Binding Assay
Male Dunkin Hartley guinea pigs (200-300 g) were used. The small intestine was rapidly removed (cut ~5 cm from caecum and 5 cm from stomach) and placed in ice-cold 20 mM Hepes-NaOH buffer (pH7.4 at 21±3° C.). The tissue was cut into ~10 cm segments, flushed through with ice-cold 20 mM Hepes-NaOH buffer and placed in a beaker containing fresh buffer at 4° C. 10 cm segments of ileum were threaded onto a glass pipette and the longitudinal muscle myenteric plexus was peeled away from the circular muscle using damp cotton-wool. Longitudinal muscle myenteric plexus was immediately placed in ice-cold Viaspan® solution (~100 ml for tissue from 3 guinea pigs) and placed in the refrigerator for 24 hours.
Pre-soaked tissue was weighed and minced with scissors. The tissue was then homogenised in Viaspan® using a polytron (Kinematica AG; PT-DA 3020/2TS, 3×~1-2 s). 50 ml of 500 mM Tris HCl (pH6.9 at 21±3° C.) was added to the tissue and the mixture centrifuged at 39,800×g for 12 min at 4° C. The supernatant was discarded and rehomogenised in 100 ml ice-cold 20 mM Hepes-NaOH buffer (pH7.4 at 21±3° C.) using a teflon-in-glass homogeniser (setting 10; 3×). The homogenate was recentrifuged at 39,800×g and the pellet resuspended in 20 mM Hepes-NaOH buffer (pH7.4 at 21±3° C.), to a tissue concentration of 50 mg.ml^-1, using a polytron (Brinkman, PT10, 3×~1 s).
Guinea pig ileum longitudinal muscle myenteric plexus membranes (400 μl) were incubated for 165 min at 21±3° C. in a final volume of 500 μl with 20 mM Hepes-NaOH buffer containing [^3 H]-R-α-methylhistamine (50 μl; 3 nM) and competing compound. Total and non-specific binding of [^3 H]-R-α-methylhistamine were defined using 50 μl of buffer and 50 μl of 10 μM thioperamide, respectively. The assay was terminated by rapid filtration through Whatman GF/B filters, presoaked (2 hr) in 0. 1% polyethyleneimine,using a Brandell Cell Harvester. The filters were washed (3×3 ml) with ice-cold 50 mM Tris-HCl (pH6.9 at 21±3° C.), transferred into scintillation vials, 5 ml liquid scintillation cocktail was added and after 4 hours the bound radioactivity was determined by counting (4 min) in a Beckman liquid scintillation counter.
Data are analysed using GraphPad prism and the general equation for a competition curve with variable Hill slope (nH).
Y=Non-specific binding+(Total binding-Non-specific binding)/1+10^((logIC.sbsp.50^-X).n.sbsp.H^)
X is the log concentration of competing compound, Y is the binding obtained at each concentration of X, pIC50 is the concentration of the competitor required to compete for half of the specific binding.
The IC50 is converted to the K1 using the Cheng Prusoff equation, […]
IC50 is the concentration of competitor required to compete for half the specific binding, L is the radioligand concentration used, KD is the equilibrium dissociation constant for the radioligand determined by saturation experiments.
(§1) Typical variance in the functional assay is ±0.15 log units. Typical variance in the binding assay is ±0.12 log units. This means that if the discrepancy between the two assays is greater than about 0.5 log units, then this difference on average is significant.

H3 receptor = target: T2, H3 receptor (Cavia porcellus, UniProt Q9JI35); assay: H3 receptor bioassay (functional assay), guinea pig ileal longitudinal muscle myenteric plexus; type: cell-based; settings: antagonism of R-(α)-methylhistamine E/[A] curve, Schild's methods, electrically stimulated guinea pig ileum, variance ±0.15 log units; for Kb: read-out: pKB (functional assay) (converted)
T2 construct: the longitudinal muscle layer and adhering myenteric plexus was teased away; from tissue; host or cells: ileal longitudinal muscle with adhering myenteric plexus of male Dunkin-Hartley guinea pigs
Method: The biological activity of the compounds of the examples was measured using the ileal longitudinal muscle, myenteric plexus assay described by Paton and Aboo Zar (J. Physiol. 194, 13-33 (1968)). Male Dunkin-Hartley guinea pigs (250-300 g) were employed. Briefly, a 50 cm portion of ileum proximal to the caecum was removed, after discarding the terminal 20 cm. Ileal segments (3 cm) were cleaned by passing Krebs-Henseleit buffer containing 3 μM mepyramine gently through the ileum using a Pasteur pipette (size: 13.8 cm length, 0.65 cm diameter). To avoid unnecessary damage to the tissue, Krebs-Henseleit buffer was passed through the ileal segment, while it was lying horizontally on a petri dish. Therefore, the ileum was not over-distended and the buffer flowed through with ease. Each segment was then passed over a Pasteur pipette and the longitudinal muscle layer and adhering myenteric plexus was teased away using moist cotton wool, by stroking tangentially away from the mesenteric attachment. The tissues were suspended in 20 ml organ baths containing Krebs-Henseleit buffer at 37±1° C. and gassed with […]. The tissues were ligated to two parallel stainless steel wires, situated between two platinum electrodes (0.76 cm length, 0.06 cm diameter). All measurements were recorded isometrically (Grass FTO3 transducer). Following an initial loading tension of 1 g, the tissues were stimulated with electrical pulses at a frequency of 0.1 Hz and a pulse duration of 0.5msec, as described by Kosterlitz & Watt (1968). Initially, the tissues were stimulated at supramaximal (1.3 fold times maximal) voltage for a period of 30 min and then the tissues were washed and re-stimulated. A "sighter dose" of the selective histamine H3 -receptor agonist, R-(α)-methylhistamine(0.3 μM) (Arrang et al., 1987), was administered. Upon generation of response, the "sighter dose" was removed from the tissues by "washout" (6 washes over 60 min) and during this period the electrical stimulation was switched off. The tissues were then re-stimulated and allowed to stabilise prior to the addition of drug treatments, which were allocated on a randomised block basis to the organ baths. Following the incubation period, a single cumulative E/[A] curve was obtained. The experimental E/[A] curve data was expressed as the percentage inhibition of the peak height of electrically-stimulated contraction. Antagonist affinity values were calculated from the degree of rightward shift of the R-(α)-methylhistamine E/[A] curves using Schild's methods (Arunlatcshama & Schild, 1949).
as §1

T2 sequence (Q9JI35 whole entry): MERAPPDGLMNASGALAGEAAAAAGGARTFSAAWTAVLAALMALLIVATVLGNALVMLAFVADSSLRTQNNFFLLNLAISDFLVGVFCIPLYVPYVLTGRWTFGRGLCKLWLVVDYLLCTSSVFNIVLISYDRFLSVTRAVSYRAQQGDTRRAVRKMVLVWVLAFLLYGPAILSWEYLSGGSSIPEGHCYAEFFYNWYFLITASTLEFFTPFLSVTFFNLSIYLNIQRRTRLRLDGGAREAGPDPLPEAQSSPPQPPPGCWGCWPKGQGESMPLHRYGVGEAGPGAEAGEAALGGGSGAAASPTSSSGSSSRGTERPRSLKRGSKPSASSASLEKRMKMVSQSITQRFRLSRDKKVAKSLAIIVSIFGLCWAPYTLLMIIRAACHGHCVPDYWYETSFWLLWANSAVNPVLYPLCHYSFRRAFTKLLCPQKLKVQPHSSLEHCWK
T1 sequence (Q9JI35 whole entry): as above

Structure (SMILES) | Ki (Histamine H3) | Kb (H3 receptor) | pK1 (binding assay) (Histamine H3) | pKB (functional assay) (H3 receptor)
O=S(=O)(CCC1CCCCC1)NCCc1c[nH]cn1 [Example 23, N-[2-(4(5)-Imidazoyl)ethyl]-2-cyclohexylethanesulfonamide] |  | 1350 nM | 7.55 | 
O=S(=O)(CCc1ccc(Cl)cc1)NCCCCCc1c[nH]cn1 [Example 54, N-[5-(4(5)-Imidazoyl)pentyl]-2-(4-chlorophenyl)ethanesulfonamide] | 10 nM | 15.8 nM |  | 
O=S(=O)(NCCCCc1c[nH]cn1)NCc1cccc(Cl)c1 [Example 42, N-[4-(4(5)-Imidazoyl)butyl]-N'-(3-chlorophenyl)methyl-sulfamide] | 16.2 nM | 13.8 nM |  | 
O=S(=O)(Cc1ccc(Cl)cc1)NCCCCc1c[nH]cn1 [Example 10, N-[4-(4(5)-Imidazoyl)butyl]-(4-chlorophenyl)methanesulfonamide] |  | 2.4 nM | 8.53 | 
O=S(=O)(NCCCCCCc1c[nH]cn1)NCc1ccc(F)cc1 [Example 59, N-[6-(4(5)-Imidazoyl)hexyl]-N'-(4-fluorophenyl)methyl-sulfamide] | 8.32 nM | 3.72 nM |  | 
O=S(=O)(NCCCCCCc1c[nH]cn1)NCc1ccc(C(F)(F)F)cc1 [Example 60, N-[6-(4(5)-Imidazoyl)hexyl]-N'-(4-(trifluoromethyl)phenyl)methyl-sulfamide] | 4.57 nM | 14.5 nM |  | 
O=S(=O)(NCCCCc1c[nH]cn1)NCc1ccc(Cl)cc1 [Example 13, N-[4-(4(5)-Imidazoyl)butyl]-N'-(4-chlorophenyl)methyl-sulfamide] |  | 2.09 nM | 8.56 | 
O=S(=O)(NCCCCCc1c[nH]cn1)NCc1ccc(C(F)(F)F)cc1 [Example 63, N-[5-(4(5)-Imidazoyl)pentyl]-N'-(4-(trifluoromethyl)phenyl)methyl-sulfamide] | 6.61 nM | 4.07 nM |  | 
O=S(=O)(/C=C/c1ccccc1)NCCc1c[nH]cn1 [Example 20, (E)-N-[2-(4(5)-Imidazoyl)ethyl]-2-phenylethenesulfonamide] |  | > 3160 nM | 7.26 | 
O=S(=O)(NCCCCCc1c[nH]cn1)NCc1ccc(Br)cc1 [Example 64, N-[5-(4(5)-Imidazoyl)pentyl]-N'-(4-bromophenyl)methyl-sulfamide] | 5.01 nM | 3.89 nM |  | 
O=S(=O)(NCCCCCCc1c[nH]cn1)NCc1ccc(I)cc1 [Example 61, N-[6-(4(5)-Imidazoyl)hexyl]-N'-(4-iodophenyl)methyl-sulfamide] |  |  | 8.46 | 8.62
O=S(=O)(NCCCCc1c[nH]cn1)NCCc1ccc(Cl)cc1 [Example 57, N-[4-(4(5)-Imidazoyl)butyl]-N'-2-(4-chlorophenyl)ethyl-sulfamide] | 14.5 nM | 11 nM |  | 
O=S(=O)(NCCCCc1c[nH]cn1)NCc1ccc(Cl)c(Cl)c1 [Example 41, N-[4-(4(5)-Imidazoyl)butyl]-N'-(3,4-dichlorophenyl)methyl-sulfamide] | 4.27 nM | 3.89 nM |  | 
O=S(=O)(NCCCCc1c[nH]cn1)NCc1ccc(F)cc1 [Example 46, N-[4-(4(5)-Imidazoyl)butyl]-N'-(4-fluorophenyl)methyl-sulfamide] |  | 20 nM | 7.84 | 
O=S(=O)(NCc1ccc(Br)cc1)N(CCCCc1c[nH]cn1)Cc1ccc(Br)cc1 [Example 67, N,N'-Di-[(4-bromophenyl)methyl]-N-[4-(4(5)-imidazoyl)butyl]-sulfamide] | 141 nM | 603 nM |  | 
O=S(=O)(NCCCCc1c[nH]cn1)NCc1ccc(-c2ccccc2)cc1 [Example 49, N-[4-(4(5)-Imidazoyl)butyl]-N'-(4-biphenyl)methyl-sulfamide] |  | 4.79 nM | 8.12 | 
O=S(=O)(NCCCCc1c[nH]cn1)NCC1CCCCC1 [Example 51, N-[4-(4(5)-Imidazoyl)butyl]-N'-cyclohexylmethyl-sulfamide] | 79.4 nM | 97.7 nM |  | 
O=S(=O)(NCCCCCCc1c[nH]cn1)NCc1ccc(Cl)cc1 [Example 15, N-[6-(4(5)-Imidazoyl)hexyl]-N'-(4-chlorophenyl)methyl-sulfamide] |  | 1.7 nM | 8.36 | 
O=S(=O)(NCCCc1c[nH]cn1)NCc1ccc(Cl)cc1 [Example 14, N-[3-(4(5)-Imidazoyl)propyl]-N'-(4-chlorophenyl)methyl-sulfamide] |  | 91.2 nM | 7.28 | 

More lines, now with the values ahead:

Ki (Histamine H3) | Kb (H3 receptor) | pK1 (binding assay) (Histamine H3) | pKB (functional assay) (H3 receptor) | Structure (SMILES)
16.6 nM | 18.6 nM |  |  | O=S(=O)(NCCCCc1c[nH]cn1)NCc1ccc2ccccc2c1 [Example 50, N-[4-(4(5)-Imidazoyl)butyl]-N'-2-naphthylmethyl-sulfamide]
 | 132 nM | 7.40 |  | O=S(=O)(NCCCCCCCc1c[nH]cn1)c1ccc2ccccc2c1 [Example 29]
 | 110 nM | 7.50 |  | O=S(=O)(NCCCCCc1c[nH]cn1)c1ccc2ccccc2c1 [Example 6, N-[5-(4(5)-Imidazoyl)pentyl]-2-naphthalenesulfonamide]
 | 77.6 nM | 7.49 |  | O=S(=O)(NCCCCCCc1c[nH]cn1)c1ccc2ccccc2c1 [Example 8]
 | 155 nM | 7.42 |  | O=S(=O)(NCCCCc1c[nH]cn1)c1ccc2ccccc2c1 [Example 7, N-[4-(4(5)-Imidazoyl)butyl]-2-naphthalenesulfonamide]
1120 nM | > 10000 nM |  |  | O=S(=O)(Cc1ccc2ccccc2c1)NCCc1c[nH]cn1 [Example 19, N-[2-(4(5)-Imidazoyl)ethyl]-2-naphthylmethanesulfonamide]
 | 200 nM | 7.77 |  | O=S(=O)(NCCc1c[nH]cn1)c1ccc2ccccc2c1 [Example 1, N-[2-(4(5)-Imidazoyl)ethyl]-2-naphthalenesulfonamide]
 | 1620 nM | 7.07 |  | O=S(=O)(NCCCCCCCCCCc1c[nH]cn1)c1ccc2ccccc2c1 [Example 31, N-[10-(4(5)-Imidazoyl)decyl]-2-naphthalenesulfonamide]
